Earlier results on 2 molecules are cited in patent US12201623B1, “Composition and method for preventing long-term COVID-19 morbidity” (priority 2021, dated 2025).

The data set concerns SARS-COV-2. Particulars: peripheral blood monocytes purified from healthy volunteers.

As for `COC1=C(OC)C(=O)C(CCCCCCCCCC[P+](c2ccccc2)(c2ccccc2)c2ccccc2)=C(C)C1=O` [MitoQ], the SARS-COV-2 replication entry is given as “suppressed”.
Consider `CC(=O)N[C@@H](CS)C(=O)O` [NAC], for which the SARS-COV-2 replication entry is given as “suppressed”.
